# Test results as given in ChEMBL document CHEMBL1201862, “PubChem BioAssay data set” (2004).
#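 Exposure lasted 48 hours, with cells grown in 96-well plates and compounds tested at five concentrations. GI50: concentration for 50% inhibition of growth.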 Activity calls are given as the source filed them. No stated cut-off is given here; in the data, active = GI50 up to about 1.1 µM and inactive = higher.
# Assays:
# Test in all cases: DTP human tumour cell line panel, 48 h
# 786-0 = tested on: 786-0
# NCI-H460 = tested on: NCI-H460
# HL-60 = tested on: HL-60
# IGROV-1 = tested on: IGROV-1
# UACC-62 = tested on: UACC-62
# SF-268 = tested on: SF-268
# ACHN = tested on: ACHN
# HOP-18 = tested on: HOP-18
# COLO 205 = tested on: COLO 205
# SK-MEL-2 = tested on: SK-MEL-2
# RXF 631 = tested on: RXF 631
# SF-295 = tested on: SF-295
# K562 = tested on: K562
# HCC 2998 = tested on: HCC 2998
# LOX IMVI = tested on: LOX IMVI
# SK-MEL-28 = tested on: SK-MEL-28
# HOP-92 = tested on: HOP-92
# A549 = tested on: A549
# OVCAR-8 = tested on: OVCAR-8
# M14 = tested on: M14
# HT-29 = tested on: HT-29
# NCI-H23 = tested on: NCI-H23
# KM-20L2 = tested on: KM-20L2
# SNB-78 = tested on: SNB-78
# SK-MEL-5 = tested on: SK-MEL-5
# A498 = tested on: A498
# OVCAR-4 = tested on: OVCAR-4
# OVCAR-3 = tested on: OVCAR-3
# DMS-114 = tested on: DMS-114
# XF498 = tested on: XF498
# RPMI-8226 = tested on: RPMI-8226
# UACC-257 = tested on: UACC-257
# CCRF-CEM = tested on: CCRF-CEM
# U-251 = tested on: U-251
# SK-OV-3 = tested on: SK-OV-3
# RXF 393 = tested on: RXF 393
# SNB-75 = tested on: SNB-75
# KM12 = tested on: KM12
# MOLT-4 = tested on: MOLT-4
# M19-MEL = tested on: M19-MEL
# HCT-116 = tested on: HCT-116
# HCT-15 = tested on: HCT-15
# NCI-H522 = tested on: NCI-H522
# UO-31 = tested on: UO-31
# SN12C = tested on: SN12C
# HOP-62 = tested on: HOP-62
# NCI-H226 = tested on: NCI-H226
# SF-539 = tested on: SF-539
# SNB-19 = tested on: SNB-19
# SW-620 = tested on: SW-620
# TK-10 = tested on: TK-10
# DMS-273 = tested on: DMS-273
# EKVX = tested on: EKVX
smiles,measurement,setting,value
COc1cc([C@@H]2OC(=O)C3C2C(=O)O[C@H]3c2cc(OC)c(OC)c(OC)c2)cc(OC)c1OC (stereo partly drawn),GI50,786-0,> 100 µM (inactive)
same,GI50,NCI-H460,> 100 µM (inactive)
same,GI50,HL-60,> 100 µM (inactive)
same,GI50,IGROV-1,> 100 µM (inactive)
same,GI50,UACC-62,> 100 µM (inactive)
same,GI50,SF-268,> 100 µM (inactive)
same,GI50,ACHN,> 100 µM (inactive)
same,GI50,HOP-18,> 100 µM (inactive)
same,GI50,COLO 205,> 100 µM (inactive)
same,GI50,SK-MEL-2,> 100 µM (inactive)
same,GI50,RXF 631,> 100 µM (inactive)
same,GI50,SF-295,> 100 µM (inactive)
same,GI50,K562,> 100 µM (inactive)
same,GI50,HCC 2998,> 100 µM (inactive)
same,GI50,LOX IMVI,> 100 µM (inactive)
same,GI50,SK-MEL-28,> 100 µM (inactive)
same,GI50,HOP-92,> 100 µM (inactive)
same,GI50,A549,> 100 µM (inactive)
same,GI50,OVCAR-8,> 100 µM (inactive)
same,GI50,M14,> 100 µM (inactive)
same,GI50,HT-29,> 100 µM (inactive)
same,GI50,NCI-H23,> 100 µM (inactive)
same,GI50,KM-20L2,> 100 µM (inactive)
same,GI50,SNB-78,> 100 µM (inactive)
same,GI50,SK-MEL-5,> 100 µM (inactive)
same,GI50,A498,> 100 µM (inactive)
same,GI50,OVCAR-4,> 100 µM (inactive)
same,GI50,OVCAR-3,> 100 µM (inactive)
same,GI50,DMS-114,> 100 µM (inactive)
same,GI50,XF498,6.08 µM (inactive)
same,GI50,RPMI-8226,> 100 µM (inactive)
same,GI50,UACC-257,> 100 µM (inactive)
same,GI50,CCRF-CEM,> 100 µM (inactive)
same,GI50,U-251,> 100 µM (inactive)
same,GI50,SK-OV-3,> 100 µM (inactive)
same,GI50,RXF 393,> 100 µM (inactive)
same,GI50,SNB-75,> 100 µM (inactive)
same,GI50,KM12,> 100 µM (inactive)
same,GI50,MOLT-4,> 100 µM (inactive)
same,GI50,M19-MEL,> 100 µM (inactive)
same,GI50,HCT-116,> 100 µM (inactive)
same,GI50,HCT-15,> 100 µM
same,GI50,NCI-H522,> 100 µM (inactive)
same,GI50,UO-31,> 100 µM (inactive)
same,GI50,SN12C,> 100 µM (inactive)
same,GI50,HOP-62,> 100 µM (inactive)
same,GI50,NCI-H226,38.8 µM (inactive)
same,GI50,SF-539,> 100 µM (inactive)
same,GI50,SNB-19,> 100 µM (inactive)
same,GI50,SW-620,> 100 µM (inactive)
same,GI50,TK-10,> 100 µM (inactive)
same,GI50,DMS-273,> 100 µM (inactive)
same,GI50,EKVX,> 100 µM (inactive)
